In general, AC50 refers to the midpoint of the concentration-response curve, whichever way the signal moves.

Among the targets are Melanocortin receptor 4 (Homo sapiens, UniProt P32245); Mu-type opioid receptor (Homo sapiens, UniProt P35372); Cannabinoid receptor 1 (Homo sapiens, UniProt P21554).
The target in test [1] is T1, Alpha-1A adrenergic receptor (Homo sapiens, UniProt P35348).
T1 sequence (P35348 whole entry): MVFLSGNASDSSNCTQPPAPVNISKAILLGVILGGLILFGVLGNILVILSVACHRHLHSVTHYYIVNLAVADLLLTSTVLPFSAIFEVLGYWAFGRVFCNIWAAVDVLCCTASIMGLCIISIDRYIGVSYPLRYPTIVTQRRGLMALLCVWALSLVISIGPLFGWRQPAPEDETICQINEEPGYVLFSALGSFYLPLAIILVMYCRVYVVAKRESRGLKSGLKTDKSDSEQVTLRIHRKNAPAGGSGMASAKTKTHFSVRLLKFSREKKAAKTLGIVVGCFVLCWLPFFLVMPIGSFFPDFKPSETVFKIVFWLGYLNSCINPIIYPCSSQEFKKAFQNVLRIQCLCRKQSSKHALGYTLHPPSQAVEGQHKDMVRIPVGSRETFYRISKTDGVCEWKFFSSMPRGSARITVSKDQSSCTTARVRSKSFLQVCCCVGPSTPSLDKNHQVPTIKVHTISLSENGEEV

The target in test [2] is Sodium-dependent serotonin transporter (Homo sapiens, UniProt P31645).
Another test has as its target T2, Thromboxane A2 receptor (Homo sapiens, UniProt P21731).
T2 sequence (P21731 whole entry): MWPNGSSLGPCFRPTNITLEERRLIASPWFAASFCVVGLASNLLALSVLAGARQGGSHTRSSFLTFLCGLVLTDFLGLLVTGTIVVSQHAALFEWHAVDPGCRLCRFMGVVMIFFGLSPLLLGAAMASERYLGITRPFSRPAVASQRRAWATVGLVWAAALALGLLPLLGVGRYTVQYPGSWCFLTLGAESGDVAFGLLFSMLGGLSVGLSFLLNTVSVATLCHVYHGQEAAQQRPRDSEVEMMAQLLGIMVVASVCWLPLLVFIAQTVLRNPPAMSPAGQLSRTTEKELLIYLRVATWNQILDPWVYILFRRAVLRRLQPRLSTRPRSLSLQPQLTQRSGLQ

Test [3] deals with T3, 5-hydroxytryptamine receptor 3A (Homo sapiens, UniProt P46098).
T3 sequence (P46098 whole entry): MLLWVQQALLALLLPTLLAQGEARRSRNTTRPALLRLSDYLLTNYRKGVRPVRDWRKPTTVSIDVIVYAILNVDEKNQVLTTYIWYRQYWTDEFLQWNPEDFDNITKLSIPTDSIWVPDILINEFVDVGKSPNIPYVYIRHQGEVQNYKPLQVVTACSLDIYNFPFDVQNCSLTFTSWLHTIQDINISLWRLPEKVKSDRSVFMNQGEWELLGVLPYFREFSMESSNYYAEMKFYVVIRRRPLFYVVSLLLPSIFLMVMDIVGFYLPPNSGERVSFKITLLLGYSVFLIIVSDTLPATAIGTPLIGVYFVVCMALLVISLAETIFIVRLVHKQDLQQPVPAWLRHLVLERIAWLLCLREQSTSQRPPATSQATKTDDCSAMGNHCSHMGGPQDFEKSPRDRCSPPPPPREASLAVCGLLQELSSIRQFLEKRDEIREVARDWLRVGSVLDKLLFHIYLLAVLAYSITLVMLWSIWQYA
Type of test: functional.

The target of test [4] is 3',5'-cyclic-AMP phosphodiesterase 4D (Homo sapiens, UniProt Q08499). Type of test: functional.
For test [5], the target named is T4, Cholecystokinin receptor type A (Homo sapiens, UniProt P32238).
T4 sequence (P32238 whole entry): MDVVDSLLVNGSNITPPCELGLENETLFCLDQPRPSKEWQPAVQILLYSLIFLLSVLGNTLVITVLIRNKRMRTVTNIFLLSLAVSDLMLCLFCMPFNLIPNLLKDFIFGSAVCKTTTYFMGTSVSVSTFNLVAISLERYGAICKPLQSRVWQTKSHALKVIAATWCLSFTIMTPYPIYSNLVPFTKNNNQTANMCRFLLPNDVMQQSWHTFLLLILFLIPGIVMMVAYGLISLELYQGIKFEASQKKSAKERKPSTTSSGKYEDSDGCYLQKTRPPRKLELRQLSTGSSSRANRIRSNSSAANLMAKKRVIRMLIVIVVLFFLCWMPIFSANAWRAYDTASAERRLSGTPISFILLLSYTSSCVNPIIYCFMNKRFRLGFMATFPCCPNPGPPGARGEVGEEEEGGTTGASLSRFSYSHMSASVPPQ

The next test deals with Histamine H2 receptor (Homo sapiens, UniProt P25021). The class given is functional, cell-based.
In test [6] the target is T1, Alpha-1A adrenergic receptor. The class given is functional, cell-based.
Further: assay procedure not described here.

Chain of 3',5'-cyclic-AMP phosphodiesterase 4D (Q08499 whole entry): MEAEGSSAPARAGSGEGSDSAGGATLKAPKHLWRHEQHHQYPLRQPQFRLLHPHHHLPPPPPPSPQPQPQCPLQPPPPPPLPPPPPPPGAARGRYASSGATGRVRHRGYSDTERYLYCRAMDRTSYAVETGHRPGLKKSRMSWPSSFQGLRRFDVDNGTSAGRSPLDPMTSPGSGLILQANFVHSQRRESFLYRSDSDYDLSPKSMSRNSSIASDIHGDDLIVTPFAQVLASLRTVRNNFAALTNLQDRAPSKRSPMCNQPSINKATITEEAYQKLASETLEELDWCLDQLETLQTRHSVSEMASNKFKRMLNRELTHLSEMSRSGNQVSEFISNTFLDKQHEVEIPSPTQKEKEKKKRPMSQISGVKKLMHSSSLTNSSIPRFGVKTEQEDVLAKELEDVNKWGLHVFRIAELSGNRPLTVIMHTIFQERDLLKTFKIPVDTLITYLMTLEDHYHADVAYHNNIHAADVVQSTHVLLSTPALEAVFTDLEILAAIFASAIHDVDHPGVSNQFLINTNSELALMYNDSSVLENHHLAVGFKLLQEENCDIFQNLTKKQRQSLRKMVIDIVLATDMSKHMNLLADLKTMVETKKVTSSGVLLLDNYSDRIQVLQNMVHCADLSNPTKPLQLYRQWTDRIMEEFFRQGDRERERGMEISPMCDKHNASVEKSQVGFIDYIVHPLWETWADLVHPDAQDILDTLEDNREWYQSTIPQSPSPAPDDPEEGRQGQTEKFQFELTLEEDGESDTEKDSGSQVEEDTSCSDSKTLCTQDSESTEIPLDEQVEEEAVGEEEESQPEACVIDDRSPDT
Chain of Mu-type opioid receptor (P35372 whole entry): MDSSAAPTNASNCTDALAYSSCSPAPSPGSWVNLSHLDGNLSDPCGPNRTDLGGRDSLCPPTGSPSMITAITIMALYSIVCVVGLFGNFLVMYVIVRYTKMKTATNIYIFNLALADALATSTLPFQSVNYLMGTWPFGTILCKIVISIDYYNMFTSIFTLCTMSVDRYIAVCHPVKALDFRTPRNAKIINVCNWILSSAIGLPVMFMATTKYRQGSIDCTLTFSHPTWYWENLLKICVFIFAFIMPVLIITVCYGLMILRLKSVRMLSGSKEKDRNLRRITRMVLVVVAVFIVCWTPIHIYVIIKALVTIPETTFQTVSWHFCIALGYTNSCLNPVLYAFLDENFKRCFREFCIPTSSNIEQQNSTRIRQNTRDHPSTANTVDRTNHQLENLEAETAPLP
Chain of Cannabinoid receptor 1 (P21554 whole entry): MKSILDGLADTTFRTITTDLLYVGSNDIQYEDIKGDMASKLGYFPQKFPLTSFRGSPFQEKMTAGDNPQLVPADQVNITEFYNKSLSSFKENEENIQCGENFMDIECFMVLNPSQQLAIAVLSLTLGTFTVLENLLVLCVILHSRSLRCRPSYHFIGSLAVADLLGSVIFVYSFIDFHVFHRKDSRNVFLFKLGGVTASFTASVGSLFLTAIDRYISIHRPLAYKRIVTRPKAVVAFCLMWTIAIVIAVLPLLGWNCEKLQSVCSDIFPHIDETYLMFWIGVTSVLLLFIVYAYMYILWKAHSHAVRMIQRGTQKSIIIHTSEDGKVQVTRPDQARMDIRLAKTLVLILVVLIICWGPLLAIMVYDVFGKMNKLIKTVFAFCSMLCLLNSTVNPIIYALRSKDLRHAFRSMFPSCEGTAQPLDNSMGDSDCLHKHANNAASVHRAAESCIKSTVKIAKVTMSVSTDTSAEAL
Chain of Melanocortin receptor 4 (P32245 whole entry): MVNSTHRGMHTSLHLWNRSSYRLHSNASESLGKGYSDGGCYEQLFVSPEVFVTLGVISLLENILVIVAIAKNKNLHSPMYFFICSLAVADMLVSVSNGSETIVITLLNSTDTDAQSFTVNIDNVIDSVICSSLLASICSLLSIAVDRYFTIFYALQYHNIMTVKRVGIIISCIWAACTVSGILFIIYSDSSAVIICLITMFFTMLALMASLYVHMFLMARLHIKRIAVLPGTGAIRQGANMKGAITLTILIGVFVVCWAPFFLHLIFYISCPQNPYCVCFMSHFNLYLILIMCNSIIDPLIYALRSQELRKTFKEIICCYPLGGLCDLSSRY
Chain of Histamine H2 receptor (P25021 whole entry): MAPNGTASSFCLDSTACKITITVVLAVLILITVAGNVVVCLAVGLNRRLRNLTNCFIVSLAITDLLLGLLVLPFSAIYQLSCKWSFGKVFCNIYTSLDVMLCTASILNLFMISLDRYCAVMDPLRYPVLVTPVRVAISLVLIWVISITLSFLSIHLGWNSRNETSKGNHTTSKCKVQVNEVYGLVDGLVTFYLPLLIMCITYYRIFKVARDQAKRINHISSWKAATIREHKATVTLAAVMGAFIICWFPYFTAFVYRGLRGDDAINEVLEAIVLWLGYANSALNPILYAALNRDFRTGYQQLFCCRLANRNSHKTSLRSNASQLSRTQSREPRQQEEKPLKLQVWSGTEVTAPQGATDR
Chain of Sodium-dependent serotonin transporter (P31645 whole entry): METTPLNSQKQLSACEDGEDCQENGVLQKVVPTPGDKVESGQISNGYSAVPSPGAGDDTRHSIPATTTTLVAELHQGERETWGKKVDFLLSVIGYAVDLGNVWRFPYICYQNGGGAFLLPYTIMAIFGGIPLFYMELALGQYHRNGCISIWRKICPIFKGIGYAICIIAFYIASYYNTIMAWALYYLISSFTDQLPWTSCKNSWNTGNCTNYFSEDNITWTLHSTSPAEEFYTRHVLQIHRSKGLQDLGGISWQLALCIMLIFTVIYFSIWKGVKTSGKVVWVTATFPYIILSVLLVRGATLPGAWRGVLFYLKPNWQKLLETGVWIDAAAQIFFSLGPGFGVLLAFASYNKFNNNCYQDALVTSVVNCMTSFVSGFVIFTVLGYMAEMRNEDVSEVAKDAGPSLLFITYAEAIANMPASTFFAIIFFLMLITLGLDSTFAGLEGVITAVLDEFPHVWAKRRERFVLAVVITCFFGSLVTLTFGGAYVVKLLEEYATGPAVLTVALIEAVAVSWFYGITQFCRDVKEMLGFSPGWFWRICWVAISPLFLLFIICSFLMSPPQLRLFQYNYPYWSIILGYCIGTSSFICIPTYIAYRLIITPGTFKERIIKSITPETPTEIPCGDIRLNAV

Consider `O=C(O)CCCCCCCC(=O)O` [AZELAIC ACID], for which the concentration at half-maximal activity (AC50) was greater than 30 µM in test [1]; greater than 10 µM at Melanocortin receptor 4; greater than 10 µM in test [2]; greater than 10 µM on Thromboxane A2 receptor; greater than 30 µM on Mu-type opioid receptor; greater than 30 µM in test [3]. The AC50 at Cannabinoid receptor 1 is greater than 10 µM; in [4], greater than 30 µM; in test [5], greater than 10 µM; at Histamine H2 receptor, greater than 30 µM.
As for `CC(C[N+](C)(C)C)OC(N)=O` (stereo not drawn) [BETHANECHOL], the AC50 was greater than 10 µM in test [1]; greater than 10 µM on Melanocortin receptor 4; greater than 10 µM in test [2]; greater than 10 µM at Thromboxane A2 receptor; greater than 30 µM on Mu-type opioid receptor; greater than 30 µM in test [3]. The AC50 at Cannabinoid receptor 1 was greater than 10 µM; in [4], greater than 30 µM; in test [5] it was greater than 10 µM; on Histamine H2 receptor, greater than 10 µM.
As to `C=CCC1(CC(C)C)C(=O)NC(=O)NC1=O` [BUTALBITAL], the concentration at half-maximal activity (AC50) in test [1] is greater than 30 µM; in [6], greater than 30 µM; at Melanocortin receptor 4, greater than 10 µM; in test [2], greater than 10 µM; at Thromboxane A2 receptor, greater than 10 µM; at Mu-type opioid receptor, greater than 30 µM. Further, the AC50 in test [3] was greater than 30 µM; on Cannabinoid receptor 1, greater than 10 µM; in test [4] it was greater than 30 µM; in test [5], greater than 10 µM; at Histamine H2 receptor it was greater than 30 µM.
For the compound `CC1(C)O[C@@H]2C[C@H]3[C@@H]4CCC5=CC(=O)C=C[C@]5(C)[C@H]4[C@@H](O)C[C@]3(C)[C@]2(C(=O)CO)O1` [DESONIDE], the half-maximal activity concentration (AC50) in test [1] was greater than 10 µM; in test [6], greater than 30 µM; on Melanocortin receptor 4, greater than 10 µM; in test [2], greater than 10 µM; at Thromboxane A2 receptor, greater than 10 µM; on Mu-type opioid receptor, greater than 30 µM. The AC50 in test [3] is greater than 30 µM; on Cannabinoid receptor 1, greater than 10 µM; in test [4] it was greater than 30 µM; in test [5] it was greater than 10 µM; at Histamine H2 receptor it was greater than 10 µM.
Turning to `CCCCc1ncc(/C=C(\Cc2cccs2)C(=O)O)n1Cc1ccc(C(=O)O)cc1` [EPROSARTAN], the AC50 was greater than 10 µM in test [1]; greater than 30 µM in [6]; greater than 10 µM on Melanocortin receptor 4; greater than 30 µM in test [2]; greater than 10 µM on Thromboxane A2 receptor; greater than 10 µM on Mu-type opioid receptor. The AC50 is greater than 10 µM in test [3]; greater than 10 µM at Cannabinoid receptor 1; greater than 10 µM in test [4]; greater than 30 µM in test [5]; greater than 10 µM at Histamine H2 receptor.
Turning to `C[C@]1(O)CC[C@H]2[C@@H]3CCC4=CC(=O)CC[C@]4(C)[C@@]3(F)[C@@H](O)C[C@@]21C` [FLUOXYMESTERONE], the AC50 in test [1] was greater than 30 µM; at Melanocortin receptor 4 it was greater than 10 µM; in [2], greater than 10 µM; at Thromboxane A2 receptor, greater than 10 µM; on Mu-type opioid receptor it was greater than 30 µM; in test [3], greater than 30 µM. For the same compound, the AC50 was greater than 10 µM on Cannabinoid receptor 1, greater than 30 µM in test [4], greater than 10 µM in test [5] and greater than 30 µM on Histamine H2 receptor.
On to `CCCC(=O)O[C@]1(C(=O)CO)CC[C@H]2[C@@H]3CCC4=CC(=O)CC[C@]4(C)[C@H]3[C@@H](O)C[C@@]21C` [HYDROCORTISONE BUTYRATE], for which the AC50 in test [1] is greater than 10 µM; on Melanocortin receptor 4, greater than 10 µM; in test [2] it was greater than 10 µM; at Thromboxane A2 receptor, greater than 10 µM; on Mu-type opioid receptor, greater than 30 µM; in [3], greater than 30 µM. Further, the AC50 on Cannabinoid receptor 1 is greater than 10 µM; in test [4], greater than 30 µM; in [5], greater than 10 µM; on Histamine H2 receptor it was greater than 10 µM.
On to `CC(C)(C)c1cc(C(C)(C)C)c(NC(=O)c2c[nH]c3ccccc3c2=O)cc1O` [IVACAFTOR], for which the AC50 in [1] was greater than 10 µM; at Melanocortin receptor 4 it was 25.6 µM; in test [2], greater than 30 µM; on Thromboxane A2 receptor it was 22 µM; on Mu-type opioid receptor, greater than 30 µM; in [3], greater than 30 µM. Also, the AC50 was greater than 10 µM at Cannabinoid receptor 1, greater than 30 µM in [4], greater than 30 µM in test [5] and greater than 10 µM on Histamine H2 receptor.
As to `C[C@H](N)[C@H](O)c1cccc(O)c1` [METARAMINOL], the AC50 in [1] was 30 µM; at Melanocortin receptor 4 it was greater than 10 µM; in test [2] it was greater than 10 µM; at Thromboxane A2 receptor, greater than 10 µM; at Mu-type opioid receptor, greater than 30 µM; in test [3] it was greater than 30 µM. In addition, the AC50 at Cannabinoid receptor 1 is greater than 10 µM; in test [4] it was greater than 30 µM; in test [5], greater than 10 µM; on Histamine H2 receptor, greater than 30 µM.
As for `O=C(O)[C@H](CC(=O)N1C[C@H]2CCCC[C@H]2C1)Cc1ccccc1` [MITIGLINIDE], the AC50 in [1] was greater than 10 µM; on Melanocortin receptor 4, greater than 10 µM; in test [2], greater than 10 µM; on Thromboxane A2 receptor, greater than 10 µM; at Mu-type opioid receptor it was greater than 30 µM; in [3], greater than 30 µM. For the same compound, the AC50 on Cannabinoid receptor 1 is greater than 10 µM; in test [4] it was greater than 30 µM; in test [5] it was greater than 10 µM; at Histamine H2 receptor it was greater than 10 µM.
Consider `C#C[C@]1(O)CC[C@H]2[C@@H]3CCc4cc(OC5CCCC5)ccc4[C@H]3CC[C@@]21C` [QUINESTROL], for which the AC50 is greater than 10 µM in [1]; greater than 10 µM at Melanocortin receptor 4; greater than 10 µM in test [2]; greater than 10 µM at Thromboxane A2 receptor; greater than 30 µM on Mu-type opioid receptor; greater than 30 µM in test [3]. Also, the AC50 is greater than 10 µM at Cannabinoid receptor 1, greater than 30 µM in test [4], greater than 10 µM in test [5] and greater than 10 µM at Histamine H2 receptor.
As for `C=CCC1(C(C)CC)C(=O)NC(=O)NC1=O` (stereo not drawn) [TALBUTAL], the AC50 in [1] is greater than 10 µM; on Melanocortin receptor 4 it was greater than 10 µM; in [2], greater than 10 µM; on Thromboxane A2 receptor, greater than 10 µM; on Mu-type opioid receptor, greater than 30 µM; in test [3] it was greater than 30 µM. In addition, the AC50 at Cannabinoid receptor 1 was greater than 10 µM; in test [4] it was greater than 30 µM; in [5], greater than 10 µM; at Histamine H2 receptor, greater than 10 µM.
In the case of `CN1C(=O)C(O)N=C(c2ccccc2)c2cc(Cl)ccc21` (stereo not drawn) [TEMAZEPAM], the AC50 in test [1] was greater than 10 µM; at Melanocortin receptor 4 it was greater than 30 µM; in test [2] it was greater than 10 µM; at Thromboxane A2 receptor it was greater than 30 µM; at Mu-type opioid receptor, greater than 30 µM; in test [3], greater than 30 µM. Also, the AC50 on Cannabinoid receptor 1 is greater than 10 µM; in [4] it was greater than 30 µM; in [5], greater than 30 µM; on Histamine H2 receptor, greater than 10 µM.
For `C[C@H](CSC(=O)c1ccccc1)C(=O)N1C[C@@H](Sc2ccccc2)C[C@H]1C(=O)O` [ZOFENOPRIL], the AC50 was greater than 10 µM in test [1]; greater than 10 µM on Melanocortin receptor 4; greater than 10 µM in test [2]; greater than 10 µM at Thromboxane A2 receptor; greater than 30 µM on Mu-type opioid receptor; greater than 30 µM in [3]. Further, the AC50 (at Cannabinoid receptor 1; in [4]; in test [5]; at Histamine H2 receptor) was greater than 10 µM throughout.

Source of the values: ChEMBL document CHEMBL5291721, “A preclinical secondary pharmacology resource illuminates target-adverse drug reaction associations of marketed drugs” (Nat Commun, 2023).
